Reference: ChEMBL document CHEMBL5729030, “Compound as selective JAK inhibitor, and salt and therapeutic use thereof” (2022)

Columns and labels:
[1] = biological target: Tyrosine-protein kinase JAK2 (Homo sapiens, UniProt O60674); experiment: (§1) Inhibition of JAK: The study of the effect of compounds on the activity of purified recombinant JAK was performed by studying the inhibitory activity of the compounds on JAK from the enzymatic level. The experimental principle is to use a luminescence kinase assay to detect the ADP content produced by the reaction of JAK with the substrate Poly (4:1 Glu, Tyr) peptide: after ADP is converted to ATP, ATP can act as a substrate for the Ultra-Glo luciferase catalytic reaction, producing an optical signal. The luminescence signal is positively correlated with the amount of ADP and kinase activity. Therefore, the inhibitory effect of the compounds on the recombinant JAK was determined by observing the luminescence signal produced by the reaction of JAK and the substrate, and was expressed by IC50.
[2] = biological target: T1, Tyrosine-protein kinase JAK3 (Homo sapiens, UniProt P52333); experiment: as §1
T1 sequence (P52333 whole entry): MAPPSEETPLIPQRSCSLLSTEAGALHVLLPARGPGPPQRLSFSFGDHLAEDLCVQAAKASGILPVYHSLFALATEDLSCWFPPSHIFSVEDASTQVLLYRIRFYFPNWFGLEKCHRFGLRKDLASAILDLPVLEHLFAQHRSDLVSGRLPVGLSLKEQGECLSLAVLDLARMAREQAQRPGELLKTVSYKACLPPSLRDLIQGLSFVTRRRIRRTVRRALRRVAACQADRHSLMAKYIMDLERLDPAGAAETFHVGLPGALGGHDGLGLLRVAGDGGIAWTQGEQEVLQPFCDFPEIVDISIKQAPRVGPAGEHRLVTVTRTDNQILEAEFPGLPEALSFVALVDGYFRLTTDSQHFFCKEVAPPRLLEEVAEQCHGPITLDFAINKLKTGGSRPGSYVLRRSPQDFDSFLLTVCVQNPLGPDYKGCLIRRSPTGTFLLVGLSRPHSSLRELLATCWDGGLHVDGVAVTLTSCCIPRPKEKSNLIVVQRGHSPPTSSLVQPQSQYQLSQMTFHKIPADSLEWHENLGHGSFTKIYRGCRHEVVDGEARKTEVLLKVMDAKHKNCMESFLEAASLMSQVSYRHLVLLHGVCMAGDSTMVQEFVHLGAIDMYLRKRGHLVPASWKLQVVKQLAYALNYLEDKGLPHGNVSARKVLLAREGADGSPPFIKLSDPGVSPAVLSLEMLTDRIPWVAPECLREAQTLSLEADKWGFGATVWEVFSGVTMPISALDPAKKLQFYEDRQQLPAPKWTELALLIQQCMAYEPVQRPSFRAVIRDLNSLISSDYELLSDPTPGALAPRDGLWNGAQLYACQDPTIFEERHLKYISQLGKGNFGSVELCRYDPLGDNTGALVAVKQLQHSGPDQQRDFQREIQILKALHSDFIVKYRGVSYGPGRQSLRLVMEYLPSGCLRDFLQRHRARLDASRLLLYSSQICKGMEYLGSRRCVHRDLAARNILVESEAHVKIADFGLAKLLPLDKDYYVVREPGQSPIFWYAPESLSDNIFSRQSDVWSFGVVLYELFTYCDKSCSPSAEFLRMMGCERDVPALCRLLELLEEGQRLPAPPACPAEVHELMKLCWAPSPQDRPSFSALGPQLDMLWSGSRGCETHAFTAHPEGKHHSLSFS

Chain of Tyrosine-protein kinase JAK2 (O60674 whole entry): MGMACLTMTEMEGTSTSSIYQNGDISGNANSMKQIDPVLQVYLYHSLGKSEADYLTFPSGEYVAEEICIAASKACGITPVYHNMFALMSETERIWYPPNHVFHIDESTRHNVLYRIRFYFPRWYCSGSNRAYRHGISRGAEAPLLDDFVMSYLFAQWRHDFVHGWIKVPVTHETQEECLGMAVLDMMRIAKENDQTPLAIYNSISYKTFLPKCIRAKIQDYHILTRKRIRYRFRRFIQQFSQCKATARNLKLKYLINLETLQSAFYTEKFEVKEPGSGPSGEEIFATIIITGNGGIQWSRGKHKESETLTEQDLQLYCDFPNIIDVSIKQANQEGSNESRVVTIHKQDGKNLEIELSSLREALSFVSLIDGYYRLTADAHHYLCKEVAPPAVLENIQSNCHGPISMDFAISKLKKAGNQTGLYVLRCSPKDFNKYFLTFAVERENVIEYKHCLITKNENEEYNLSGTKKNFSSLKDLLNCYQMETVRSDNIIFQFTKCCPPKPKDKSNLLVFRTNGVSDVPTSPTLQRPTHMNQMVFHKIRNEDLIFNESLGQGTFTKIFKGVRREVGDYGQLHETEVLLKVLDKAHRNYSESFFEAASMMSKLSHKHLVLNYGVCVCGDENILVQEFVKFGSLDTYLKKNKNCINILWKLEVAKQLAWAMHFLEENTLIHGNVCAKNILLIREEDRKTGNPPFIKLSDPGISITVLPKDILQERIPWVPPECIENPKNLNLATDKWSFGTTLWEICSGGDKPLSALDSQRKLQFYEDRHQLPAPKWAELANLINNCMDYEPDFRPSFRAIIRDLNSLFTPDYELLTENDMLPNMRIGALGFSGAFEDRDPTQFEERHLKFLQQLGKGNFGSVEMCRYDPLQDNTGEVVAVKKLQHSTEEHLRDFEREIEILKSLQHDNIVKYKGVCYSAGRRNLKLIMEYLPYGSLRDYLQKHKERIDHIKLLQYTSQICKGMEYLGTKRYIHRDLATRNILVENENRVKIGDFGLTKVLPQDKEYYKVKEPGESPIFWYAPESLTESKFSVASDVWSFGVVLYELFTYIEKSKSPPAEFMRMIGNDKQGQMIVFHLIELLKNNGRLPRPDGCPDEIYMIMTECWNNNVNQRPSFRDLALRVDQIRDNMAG

IC50 [1]	IC50 [2]	SMILES
> 50 nM	> 50 nM	CS(=O)(=O)C1CN(Cc2ccc(-c3cccc4nc(NC(=O)C5CC5)nn34)cc2F)C1
> 50 nM	> 50 nM	CS(=O)(=O)C1CN(Cc2ccc(-c3cccn4nc(NC(=O)C5CC5)nc34)cc2F)C1
